{"source": "patent US20100081702A1", "about": "(priority 2007, published 2010)", "test_system": "concanavalin A (ConA)-induced mouse hepatitis models (T cell-dependent liver injury models)", "assay": "concanavalin A (ConA)-induced mouse hepatitis model, AST and ALT in serum", "procedure": "Aspartate aminotransferase (AST) and alanine aminotransferase (ALT) in serum were measured as indices for liver injury in concanavalin A (ConA)-induced mouse hepatitis models used as T cell-dependent liver injury models. The inhibitory effects of compounds of the present invention on liver injury were studied.\nA compound suspension was orally administered at a dose of 1 mg/kg to male BALE/c mice. 24 hours after the oral administration, ConA was intravenously administered at a dose of 20 mg/kg to the tails of the mice. 24 hours after the ConA administration, blood was collected from the mice, and AST and ALT in serum were measured."}
{"smiles": "COc1ccc(CCCC(=O)c2ccc(CC[C@@](C)(N)CO)n2C)cc1C", "note": "[Compound 1]", "values": [{"measurement": "inhibitory effects on ALT level elevating effects", "setting": "result in words, 1 mg/kg oral, ConA-induced mouse hepatitis", "result": "significant inhibitory effects"}, {"measurement": "AST level (mean ± S.E., IU/L)", "setting": "serum, compound 1 mg/kg oral 24 hours before ConA 20 mg/kg intravenous, blood collected 24 hours after ConA, **P < 0.01, *P < 0.05 vs. solvent (solvent 236.9 ± 52.6, negative control 105.2 ± 26.1)", "result": "97.4 ± 9.1** IU/L"}, {"measurement": "ALT level (mean ± S.E., IU/L)", "setting": "serum, compound 1 mg/kg oral 24 hours before ConA 20 mg/kg intravenous, blood collected 24 hours after ConA, **P <0.01, *P <0.05 vs. solvent (solvent 454.1 ± 137.8, negative control 76.4 ± 14.2)", "result": "101.6 ± 19.6** IU/L"}]}
